Converted amounts (≈) assume the structure as drawn.
Tests used:
[1] = Metabokinetic experiment in blood after caudal vein injection; settings: 50 mg/kg caudal vein, n = 5
Protocol: Embodiment 5: Metabokinetic Experiment of monofructosyl-β(2,6)-Puerarin in Blood
In HPLC analysis, DIONEX was used, with chromatographic column as Discovery HS C18 ([…], 5 μm), feeding specimen volume 20 μL, column temperature 30° C., the detector was UVD170U, with detection wavelength of 254 nm, flowing phase: A, water, B, chromatographic class methanol, A:B=80:20, at flow rate of 1 mL/min.
Sprague-Dawley mice (SD mice), with weight of 180-220 g, male and female in half, provided by Medical Experiment Center of Nantong University, with production permit No.: SCXK (Su) 20080010.
SD mice were randomly divided into 2 groups of 5 each, fasting for 12 hours before experiment. Puerarin and monofructosyl-β(2,6)-puerarin were respectively dissolved in 20% 1,2-PG normal saline, and injected into mouse caudal vein at a dosage of 50 mg/kg. After injection, at t=0 min, 4 min, 7 min, 17 min, 40 min, 60 min, 120 min and 180 min, 0.5 mL of blood was taken from orbit and put into centrifugal tubes treated with liquaemin, then it was immediately separated by centrifuging at 3000 rpm for 15 min, to separate out plasma for analysis.
Plasma of 100 μL was precisely taken and put into test tube, and 400 μL of methanol sedimented protein was added, they were mixed on vortex mixer for 5 min, then centrifuged at 10000 rpm for 10 min, and the supernatant was used for HPLC analysis.
The plasma concentration of the puerarin and monofructosyl-β(2,6)-puerarin specimens prepared as per 3.2 was obtained by calculation with external reference method. The data obtained were analyzed using pharmacokinetics statistic software.

[2] = test system: human breast cancer cell strain MDA-MB-231; assay: MDA-MB-231 cell toxicity test (MTT); assay type: cell-based; settings: 48 h; for OD value: MTT 490 nm
Protocol: MDA-MB-231 cells were cultured in an incubator at 37° C. with 5% CO2 saturated humidity in the RPMI-1640 complete culture medium containing inactivated fetal calf serum with volume fraction of 10%, 100 U penicillin and streptomycin. Take MDA-MB-231 cells in logarithmic phase (primary culture bottle) and discard the culture solution. […] Prepare the suspended solution of cells and adjust the cell concentration with appropriate amount of complete culture medium to 3×10^4/mL. Fed the cells into a tissue culture plate 96, with cell suspended liquid of 180 μL in each case, and put the culture plate into a cell incubator (37° C., 5% CO2) for conventional culture. When cells grew to 50%-70%, add drug liquid of different concentration. […] For DMSO solvent control group, add 20 μL of PBS containing […] and for the blank group, add 20 μL of PBS. For each drug concentration, 6 complex cases were provided. Put back the culture plate into the cell incubator, after 48 h, add 20 μL MTT (5 mg/mL) solution and continue to incubate it in the incubator for 4 h, then remove the supernatant and dry it with tissue, add 200 μL DMSO into each case and vibrate it in the rocker without light for 15 min, to allow the crystal to fully dissolve. Determine the light absorption at 490 nm with a fully automatic ELISA instrument, and calculate the average suppression rate, suppression rate (%)=(control group A490−test group A490)/control group A490), the experiment was repeated three times. Relevant analysis and Student t tests in Microsoft Excel 2003 were used, and data are presented in X±SD.

[3] = test system: human chronmyelogenors leukemia cell strain K562; assay: K562 cell toxicity test (MTT); assay type: cell-based; settings: 48 h; for OD value: MTT 490 nm
Protocol: K-562 cells were cultured in an incubator at 37° C. with 5% CO2 saturated humidity in the RPMI-1640 complete culture medium containing inactivated calf serum with volume fraction of 10%, 100 U penicillin and streptomycin. […] For each drug concentration, 6 complex cases were provided. Put back the culture plate into the cell incubator, after 48 h, add 20 μL MTT (5 mg/mL) solution and continue to incubate it in the incubator for 4 h, then each case was added with triple liquid 100 μL, put it overnight to allow the crystal to fully dissolve. Vibrate it with oscillator for 20 min and determine the light absorption at 490 nm with a fully automatic ELISA instrument, and calculate the average suppression rate, suppression rate (%)=(control group A490−test group A490)/control group A490), the experiment was repeated three times. Relevant analysis and Student t tests in Microsoft Excel 2003 were used, and data are presented in X±SD.

[4] = Solubility determination at 25° C.

With O=c1c(-c2ccc(O)cc2)coc2c([C@@H]3O[C@H](CO[C@]4(CO)O[C@H](CO)[C@@H](O)[C@@H]4O)[C@@H](O)[C@H](O)[C@H]3O)c(O)ccc12 [monofructosyl-β(2,6)-puerarin] the “AUC (0-t)” value [1] was 5523.446 ± 688.104 mg/Lxmin, the “CL (whole body clearance)” value [1] was 0.54 ± 0.06 L/h/kg and the “MRT (0-t)” value [1] was 25.707 ± 2.324 min. For the same compound, the “MRT (0-∞)” value [1] was 27.453 ± 2.976 min, the Y [1] was 0.256 ± 0.032 L/kg and the “t½ (half life of clearance)” value [1] was 19.741 ± 2.34 min. The Average suppression rate ([2]; 0.5 μmol/L) was 3.68%, the OD value ([2]; 0.5 μmol/L) was 0.676 ± 0.021 and the Average suppression rate ([2]; 1 μmol/L) was 5.02%. The OD value ([2]; 1 μmol/L) was 0.666 ± 0.069, the Average suppression rate ([2]; 5 μmol/L) was 3.47% and the OD value ([2]; 5 μmol/L) was 0.677 ± 0.081. The Average suppression rate ([2]; 10 μmol/L) was 4.20%, the OD value ([2]; 10 μmol/L) was 0.672 ± 0.085 and the Average suppression rate ([2]; 50 μmol/L) was 20.17%. The OD value ([2]; 50 μmol/L) was 0.560 ± 0.062, the Average suppression rate ([2]; 100 μmol/L) was 28.70% and the OD value ([2]; 100 μmol/L) was 0.500 ± 0.068. For the same compound, the Average suppression rate ([2]; 150 μmol/L) was 44.04%, the OD value ([2]; 150 μmol/L) was 0.392 ± 0.041 and the Average suppression rate ([2]; 200 μmol/L) was 59.42%. The OD value ([2]; 200 μmol/L) was 0.285 ± 0.067, the Average suppression rate ([3]; 1 μmol/L) was 7.85% and the OD value ([3]; 1 μmol/L) was 0.950 ± 0.041. For the same compound, the Average suppression rate ([3]; 5 μmol/L) was 7.53%, the OD value ([3]; 5 μmol/L) was 0.950 ± 0.018 and the Average suppression rate ([3]; 10 μmol/L) was 6.76%. The OD value ([3]; 10 μmol/L) was 0.958 ± 0.022, the Average suppression rate ([3]; 20 μmol/L) was 6.16% and the OD value ([3]; 20 μmol/L) was 0.963 ± 0.055. For the same compound, the Average suppression rate ([3]; 50 μmol/L) was 11.14%, the OD value ([3]; 50 μmol/L) was 0.913 ± 0.048 and the Average suppression rate ([3]; 100 μmol/L) was 16.41%. For the same compound, the OD value ([3]; 100 μmol/L) was 0.858 ± 0.028, the Average suppression rate ([3]; 150 μmol/L) was 29.84% and the OD value ([3]; 150 μmol/L) was 0.720 ± 0.055. It also gave an Average suppression rate ([3]; 200 μmol/L) of 46.41%, an OD value ([3]; 200 μmol/L) of 0.550 ± 0.086 and a solubility [4] of 26.0 mg/mL (≈ 44.9 mM). The “solubility relative to puerarin” value ([4]; puerarin 5.2 g/L) was 5 times.
